# Assay results as given in PMC5730406 (European journal of immunology, 2015).
# Biological target: T1, Itk F434G/Δ429 (Itkas) (Homo sapiens, UniProt Q08881, DEL429-429/F435G)
# T1 sequence (Q08881 with tags, fused parts or gaps DEL429-429/F435G): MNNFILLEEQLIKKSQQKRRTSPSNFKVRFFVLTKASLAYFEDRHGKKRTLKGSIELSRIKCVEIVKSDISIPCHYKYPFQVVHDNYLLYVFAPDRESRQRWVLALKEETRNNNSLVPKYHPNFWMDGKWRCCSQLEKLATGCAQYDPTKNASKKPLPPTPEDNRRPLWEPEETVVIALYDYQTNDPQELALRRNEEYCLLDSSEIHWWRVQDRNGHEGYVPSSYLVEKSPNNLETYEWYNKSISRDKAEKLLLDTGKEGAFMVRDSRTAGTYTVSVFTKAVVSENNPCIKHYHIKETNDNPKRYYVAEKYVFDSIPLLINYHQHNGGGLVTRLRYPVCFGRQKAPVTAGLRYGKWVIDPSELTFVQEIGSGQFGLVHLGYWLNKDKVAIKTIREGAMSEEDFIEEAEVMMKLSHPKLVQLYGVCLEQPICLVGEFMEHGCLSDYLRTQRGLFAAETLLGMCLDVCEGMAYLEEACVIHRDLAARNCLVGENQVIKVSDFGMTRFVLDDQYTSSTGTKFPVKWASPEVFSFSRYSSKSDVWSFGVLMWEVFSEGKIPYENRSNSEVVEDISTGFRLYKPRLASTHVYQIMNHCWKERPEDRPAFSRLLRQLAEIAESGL
# Assay type: cell-based
compound,measurement,value
CC(C)(C)n1nc(Cc2cccc3ccccc23)c2c(N)ncnc21 [1-NM-PP1],IC50,~50 nM
